In US20250002507A1, “7,8-DIHYDRO-5H-1,6-NAPHTHYRIDINE DERIVATIVES AS POSITIVE ALLOSTERIC MODULATORS OF THE MUSCARINIC ACETYLCHOLINE RECEPTOR M4 FOR TREATING NEUROLOGICAL AND PSYCHIATRIC DISORDERS” (Vanderbilt University, priority 2021, published 2025):

Target: T1, Human M4 (Homo sapiens, UniProt P08173)
T1 construct: expressed in transfected cells
T1 sequence (P08173 1-479): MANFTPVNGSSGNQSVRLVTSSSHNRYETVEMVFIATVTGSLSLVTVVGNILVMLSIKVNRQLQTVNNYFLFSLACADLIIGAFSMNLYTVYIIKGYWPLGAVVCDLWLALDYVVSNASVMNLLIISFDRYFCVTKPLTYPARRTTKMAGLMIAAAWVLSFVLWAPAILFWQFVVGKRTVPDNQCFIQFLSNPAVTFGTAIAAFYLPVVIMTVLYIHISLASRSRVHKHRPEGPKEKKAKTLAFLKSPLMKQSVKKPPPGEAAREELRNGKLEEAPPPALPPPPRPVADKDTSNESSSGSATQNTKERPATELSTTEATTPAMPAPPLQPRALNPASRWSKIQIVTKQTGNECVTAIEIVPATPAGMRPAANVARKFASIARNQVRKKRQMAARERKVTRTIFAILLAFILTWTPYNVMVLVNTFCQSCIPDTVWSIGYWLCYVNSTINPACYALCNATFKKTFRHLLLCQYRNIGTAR
Assay: mAChR M4 cell-based functional assay (calcium flux, potentiation of EC20 acetylcholine response), hM4-Gqi5 CHO-K1 cells
Conditions: for Emax at 30 µM: CHO-K1, % ACh maximum at 30 μM, human M4, read-out: Emax; for EC50: hM4-Gqi5 CHO-K1 cells, calcium flux, PAM of EC20 acetylcholine, read-out: Human M4 EC50
In short: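 Positive allosteric modulation was scored as a concentration-dependent rise in the response to an EC20 dose of acetylcholine, added 144 s after the compound. Human M4-Gqi5 CHO-K1 cells carried Fluo-4 dye, and compounds ran as 11-point, 3-fold dilution series. EC50 and Emax came from four-parameter logistic fits of the FDSS fluorescence-ratio traces.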

Emax at 30 µM | EC50 | Compound
96% | 386 nM | Cc1c(N2CCc3ncc(Nc4ccc(Cl)cc4F)cc3C2)nn2cnnc2c1C [Compound 68, N-(4-chloro-2-fluoro-phenyl)-6-(7,8-dimethyl-[1,2,4]triazolo[4,3-b]pyridazin-6-yl)-7,8-dihydro-5H-1,6-naphthyridin-3-amine]
90% | 296 nM | Cc1ccc(F)c(Nc2cnc3c(c2)CN(c2nn4cnnc4c(C)c2C)CC3)c1 [Compound 69, 6-(7,8-dimethyl-[1,2,4]triazolo[4,3-b]pyridazin-6-yl)-N-(2-fluoro-5-methyl-phenyl)-7,8-dihydro-5H-1,6-naphthyridin-3-amine]
101% | 205 nM | Cc1c(N2CCc3ncc(Nc4ccc(F)cc4F)cc3C2)nn2cnnc2c1C [Compound 70, N-(2,4-difluorophenyl)-6-(7,8-dimethyl-[1,2,4]triazolo[4,3-b]pyridazin-6-yl)-7,8-dihydro-5H-1,6-naphthyridin-3-amine]
102% | 65.6 nM | [2H]c1nnc2c(C)c(C)c(N3CCc4ncc(Nc5ccccc5F)cc4C3)nn12 [Compound 71, 6-(3-deuterio-7,8-dimethyl-[1,2,4]triazolo[4,3-b]pyridazin-6-yl)-N-(2-fluorophenyl)-7,8-dihydro-5H-1,6-naphthyridin-3-amine]
97% | 49.7 nM | [2H]c1nnc2c(C)c(C)c(N3CCc4ncc(Nc5cc(F)ccc5F)cc4C3)nn12 [Compound 72, 6-(3-deuterio-7,8-dimethyl-[1,2,4]triazolo[4,3-b]pyridazin-6-yl)-N-(2,5-difluorophenyl)-7,8-dihydro-5H-1,6-naphthyridin-3-amine]
92% | 114 nM | [2H]c1nnc2c(C)c(C)c(N3CCc4ncc(Nc5cc(F)cc(F)c5F)cc4C3)nn12 [Compound 73, 6-(3-deuterio-7,8-dimethyl-[1,2,4]triazolo[4,3-b]pyridazin-6-yl)-N-(2,3,5-trifluorophenyl)-7,8-dihydro-5H-1,6-naphthyridin-3-amine]
103% | 108 nM | [2H]c1nnc2c(C)c(C)c(N3CCc4ncc(-c5c(C)noc5C)cc4C3)nn12 [Compound 74, 4-[6-(3-deuterio-7,8-dimethyl-[1,2,4]triazolo[4,3-b]pyridazin-6-yl)-7,8-dihydro-5H-1,6-naphthyridin-3-yl]-3,5-dimethyl-isoxazole]
99% | 164 nM | [2H]c1nnc2c(C)c(C)c(N3CCc4ncc(-c5c(C)nn(C)c5C)cc4C3)nn12 [Compound 75, 6-(3-deuterio-7,8-dimethyl-[1,2,4]triazolo[4,3-b]pyridazin-6-yl)-3-(1,3,5-trimethylpyrazol-4-yl)-7,8-dihydro-5H-1,6-naphthyridine]
101% | 127 nM | [2H]c1nnc2c(C)c(C)c(N3CCc4ncc(-c5cn(C)nc5C)cc4C3)nn12 [Compound 76, 6-(3-deuterio-7,8-dimethyl-[1,2,4]triazolo[4,3-b]pyridazin-6-yl)-3-(1,3-dimethylpyrazol-4-yl)-7,8-dihydro-5H-1,6-naphthyridine]
89% | 216 nM | [2H]c1nnc2c(C)c(C)c(N3CCc4ncc(-c5cnn(CC6CC6)c5)cc4C3)nn12 [Compound 77, 3-[1-(cyclopropylmethyl)pyrazol-4-yl]-6-(3-deuterio-7,8-dimethyl-[1,2,4]triazolo[4,3-b]pyridazin-6-yl)-7,8-dihydro-5H-1,6-naphthyridine]
92% | 63.9 nM | [2H]c1nnc2c(C)c(C)c(N3CCc4ncc(-c5cncs5)cc4C3)nn12 [Compound 78, 5-[6-(3-deuterio-7,8-dimethyl-[1,2,4]triazolo[4,3-b]pyridazin-6-yl)-7,8-dihydro-5H-1,6-naphthyridin-3-yl]thiazole]
62% | 180 nM | Cc1c(N2CCc3ncc(Nc4ncc(F)cc4F)cc3C2)nn2cnnc2c1C [Compound 79, N-(3,5-difluoro-2-pyridyl)-6-(7,8-dimethyl-[1,2,4]triazolo[4,3-b]pyridazin-6-yl)-7,8-dihydro-5H-1,6-naphthyridin-3-amine]
72% | 176 nM | Cc1c(N2CCc3ncc(Nc4ncccc4F)cc3C2)nn2cnnc2c1C [Compound 80, 6-(7,8-dimethyl-[1,2,4]triazolo[4,3-b]pyridazin-6-yl)-N-(3-fluoro-2-pyridyl)-7,8-dihydro-5H-1,6-naphthyridin-3-amine]
94% | 169 nM | Cc1ccc(Nc2cnc3c(c2)CN(c2nn4cnnc4c(C)c2C)CC3)c(F)n1 [Compound 81, 6-(7,8-dimethyl-[1,2,4]triazolo[4,3-b]pyridazin-6-yl)-N-(2-fluoro-6-methyl-3-pyridyl)-7,8-dihydro-5H-1,6-naphthyridin-3-amine]
99% | 119 nM | Cc1c(N2CCc3ncc(Nc4cccnc4F)cc3C2)nn2cnnc2c1C [Compound 82, 6-(7,8-dimethyl-[1,2,4]triazolo[4,3-b]pyridazin-6-yl)-N-(2-fluoro-3-pyridyl)-7,8-dihydro-5H-1,6-naphthyridin-3-amine]
99% | 361 nM | Cc1c(N2CCc3ncc(Nc4ccccc4F)cc3C2)nn2c(C)nnc2c1C [Compound 83, N-(2-fluorophenyl)-6-(3,7,8-trimethyl-[1,2,4]triazolo[4,3-b]pyridazin-6-yl)-7,8-dihydro-5H-1,6-naphthyridin-3-amine]
99% | 210 nM | Cc1c(N2CCc3ncc(Nc4cc(F)ccc4F)cc3C2)nn2c(C)nnc2c1C [Compound 84, N-(2,5-difluorophenyl)-6-(3,7,8-trimethyl-[1,2,4]triazolo[4,3-b]pyridazin-6-yl)-7,8-dihydro-5H-1,6-naphthyridin-3-amine]
92% | 352 nM | Cc1c(N2CCc3ncc(Nc4cc(F)cc(F)c4F)cc3C2)nn2c(C)nnc2c1C [Compound 85, N-(2,3,5-trifluorophenyl)-6-(3,7,8-trimethyl-[1,2,4]triazolo[4,3-b]pyridazin-6-yl)-7,8-dihydro-5H-1,6-naphthyridin-3-amine]
84% | 227 nM | Cc1noc(C)c1-c1cnc2c(c1)CN(c1nn3c(C)nnc3c(C)c1C)CC2 [Compound 86, 3,5-dimethyl-4-[6-(3,7,8-trimethyl-[1,2,4]triazolo[4,3-b]pyridazin-6-yl)-7,8-dihydro-5H-1,6-naphthyridin-3-yl]isoxazole]
89% | 188 nM | Cc1nn(C)c(C)c1-c1cnc2c(c1)CN(c1nn3c(C)nnc3c(C)c1C)CC2 [Compound 87, 3-(1,3,5-trimethylpyrazol-4-yl)-6-(3,7,8-trimethyl-[1,2,4]triazolo[4,3-b]pyridazin-6-yl)-7,8-dihydro-5H-1,6-naphthyridine]
97% | 195 nM | Cc1nn(C)cc1-c1cnc2c(c1)CN(c1nn3c(C)nnc3c(C)c1C)CC2 [Compound 88, 3-(1,3-dimethylpyrazol-4-yl)-6-(3,7,8-trimethyl-[1,2,4]triazolo[4,3-b]pyridazin-6-yl)-7,8-dihydro-5H-1,6-naphthyridine]
91% | 291 nM | Cc1c(N2CCc3ncc(-c4cnn(CC5CC5)c4)cc3C2)nn2c(C)nnc2c1C [Compound 89, 3-[1-(cyclopropylmethyl)pyrazol-4-yl]-6-(3,7,8-trimethyl-[1,2,4]triazolo[4,3-b]pyridazin-6-yl)-7,8-dihydro-5H-1,6-naphthyridine]
101% | 269 nM | Cc1c(N2CCc3ncc(-c4cncs4)cc3C2)nn2c(C)nnc2c1C [Compound 90, 5-[6-(3,7,8-trimethyl-[1,2,4]triazolo[4,3-b]pyridazin-6-yl)-7,8-dihydro-5H-1,6-naphthyridin-3-yl]thiazole]
106% | 1790 nM | Cc1c(N2CCc3ncc(Nc4cc(F)cc(F)c4F)cc3C2)nn2c(C(F)(F)F)nnc2c1C [Compound 91, 6-[7,8-dimethyl-3-(trifluoromethyl)-[1,2,4]triazolo[4,3-b]pyridazin-6-yl]-N-(2,3,5-trifluorophenyl)-7,8-dihydro-5H-1,6-naphthyridin-3-amine]
79% | 199 nM | Cc1noc(C)c1-c1cnc2c(c1)CN(c1nn3c(C(F)(F)F)nnc3c(C)c1C)CC2 [Compound 92, 4-[6-[7,8-dimethyl-3-(trifluoromethyl)-[1,2,4]triazolo[4,3-b]pyridazin-6-yl]-7,8-dihydro-5H-1,6-naphthyridin-3-yl]-3,5-dimethyl-isoxazole]
93% | 173 nM | Cc1nn(C)c(C)c1-c1cnc2c(c1)CN(c1nn3c(C(F)(F)F)nnc3c(C)c1C)CC2 [Compound 93, 6-[7,8-dimethyl-3-(trifluoromethyl)-[1,2,4]triazolo[4,3-b]pyridazin-6-yl]-3-(1,3,5-trimethylpyrazol-4-yl)-7,8-dihydro-5H-1,6-naphthyridine]
100% | 175 nM | Cc1nn(C)cc1-c1cnc2c(c1)CN(c1nn3c(C(F)(F)F)nnc3c(C)c1C)CC2 [Compound 94, 3-(1,3-dimethylpyrazol-4-yl)-6-[7,8-dimethyl-3-(trifluoromethyl)-[1,2,4]triazolo[4,3-b]pyridazin-6-yl]-7,8-dihydro-5H-1,6-naphthyridine]
